From patent US11384078B2, “5,6-fused-bicyclic compounds and compositions for the treatment of parasitic diseases” (NOVARTIS AG, priority 2017, dated 2022) come the findings set out here.

Where two headings read alike, the source gives them in different places.

Type in all cases: cell-based
Assay [1] has as its system Trypanosoma cruzi amastigotes cultured in 3T3 fibroblast cells. Description: Assay for growth inhibition of kinetoplastid parasite Trypanosoma cruzi (beta-galactosidase Tulahuen strain, CPRG readout). To be noted: Trypanosoma cruzi, Fibroblast, T. cruzi amastigotes in 3T3 fibroblast cells; read-out: Buckner infectious T. cruzi EC50. The gist of the method: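 3T3 fibroblasts (1,000 cells/well) plated overnight, treated with compound in DMSO, then infected with 10,000 Lac-Z-expressing Tulahuen trypomastigotes. After 6 days, 0.6 mM CPRG with 0.6% NP-40 added for 2 h at room temperature; absorbance gives relative intracellular amastigote numbers. Benznidazole and nifurtimox serve as positive controls.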

The test system of assay [2] is L. donovani HU3 strain in mouse peritoneal macrophages. Description: Assay for inhibition of parasitemia of Leishmania donovani in mouse macrophages (SYBR Green nuclei count, high-content imaging). Particulars: Leishmania donovani, Peritoneal macrophage, L. donovani in mouse peritoneal macrophages; read-out: L. donovani in Mouse Macrophages EC50. The gist of the method: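 Peritoneal macrophages from uninfected BALB/c mice were infected for 24 h with spleen-derived L. donovani HU3 (4×10^5 parasites per 2×10^4 macrophages), then cultured with compound for 5 days at 37° C, 5% CO2. After fixation and permeabilization, parasite nuclei were stained with SYBR Green and counted by high-content imaging.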

Assay [3] concerns Leishmania donovani axenic amastigote. As to the kind of experiment: In vitro assay for growth inhibition of Leishmania donovani axenic amastigote (Cell TiterGlo luminescence). Particulars: Leishmania donovani, L. donovani axenic amastigotes in vitro; read-out: L. donovani amastigotes EC50. The method, boiled down: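 Axenic L. donovani amastigotes (9600/well) grown at 37 °C, 5% CO2 in supplemented RPMI 1640, pH 5.5, with compound added from DMSO. After two days, viability read by CellTiter-Glo luminescence against DMSO and control-compound wells.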

For assay [4], the system named is Trypanosoma brucei brucei (Lister 427) strain. As to the kind of experiment: Assay for growth inhibition against Trypanosoma brucei brucei (Cell TiterGlo ATP luminescence). Particulars: T. brucei brucei (Lister 427), read-out: T. Brucei (HAT) EC50. The method, boiled down: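 T. b. brucei Lister 427 grown in HMI-9 with 10% FBS and 10% serum plus, seeded at 10,000 parasites/mL with 10-point threefold compound dilutions in duplicate, 37 °C for 2 days. Viability read as ATP luminescence 30 min after Cell TiterGlo; IC50 versus untreated controls.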

In the case of `O=C(Nc1ccc(F)c(-n2cc3cc(C4CC4)cnc3n2)c1)N1CC[C@@H](F)C1` [Compound 42, (3R)-N-(3-{5-cyclopropyl-2H-pyrazolo[3,4-b]pyridin-2-yl}-4-fluorophenyl)-3-fluoropyrrolidine-1-carboxamide], the EC50 in assay [1] was 1.8 nM; in assay [2] it was 6 nM; in assay [3] it was 3 nM; in assay [4] (Trypanosoma brucei), below 23 nM.
`O=C(Nc1ccc(F)c(-n2cc3cc(N4CC5(CC5)C4)cnc3n2)c1)N1CC(F)C1` [Compound 233, N-[3-(5-{5-azaspiro[2.3]hexan-5-yl}-2H-pyrazolo[3,4-b]pyridin-2-yl)-4-fluorophenyl]-3-fluoroazetidine-1-carboxamide]: the EC50 worked out at 5 nM in assay [1], 10 nM in assay [2], 13 nM in assay [3] and 4 nM in assay [4].
As for `O=C(Nc1ccc(F)c(-n2cc3cc(N4CC(F)(F)C4)cnc3n2)c1)C1CC1` [Compound 326, N-{3-[5-(3,3-difluoroazetidin-1-yl)-2H-pyrazolo[3,4-b]pyridin-2-yl]-4-fluorophenyl}cyclopropanecarboxamide], the 50% effective concentration (EC50) was 119 nM in assay [1], 761 nM in assay [2], 189 nM in assay [3] and 236 nM in assay [4] (Trypanosoma brucei).
Take `O=C(Nc1ccc(F)c(-n2cc3cccnc3n2)c1)N1CC(F)C1` [Compound 311, 3-fluoro-N-(4-fluoro-3-(2H-pyrazolo[3,4-b]pyridin-2-yl)phenyl)azetidine-1-carboxamide]: the EC50 in assay [1] came out at 31 nM; in assay [2], 33 nM; in assay [3], 58 nM; in assay [4] (Trypanosoma brucei) it was 27 nM.
With `O=C(Nc1ccc(F)c(-n2cc3cc(N4CCC4)cnc3n2)c1)N1CC[C@@H](F)C1` [Compound 149], the EC50 in assay [1] is 5.4 nM; in assay [2] it was 7.9 nM; in assay [3] it was 11 nM; in assay [4] (Trypanosoma brucei), below 23 nM.
The corresponding values for `Cc1ncoc1C(=O)Nc1ccc(F)c(-n2cc3cc(C(C)C)cnc3n2)c1` [Compound 73, N-{4-fluoro-3-[5-(propan-2-yl)-2H-pyrazolo[3,4-b]pyridin-2-yl]phenyl}-4-methyl-1,3-oxazole-5-carboxamide] are 57 nM, 220 nM, 100 nM and 37 nM.
Take `N#CC1(C(=O)Nc2ccc(F)c(-n3cc4cc(-c5ccccn5)cnc4n3)c2)CC1` [Compound 348, 1-cyano-N-{4-fluoro-3-[5-(pyridin-2-yl)-2H-pyrazolo[3,4-b]pyridin-2-yl]phenyl}cyclopropane-1-carboxamide]: the EC50 turned out to be 142 nM in assay [1], 963 nM in assay [2], 347 nM in assay [3] and 112 nM in assay [4] (Trypanosoma brucei).
Turning to `Cc1cccnc1-c1cnc2nn(-c3cc(NC(=O)N4CCC4)ccc3F)cc2c1` [Compound 3, N-(4-fluoro-3-(5-(3-methylpyridin-2-yl)-2H-pyrazolo[3,4-b]pyridin-2-yl)phenyl)azetidine-1-carboxamide], the EC50 in assay [1] was 1.6 nM; in assay [2] it was 2 nM; in assay [3] it was 1.8 nM; in assay [4] (Trypanosoma brucei), below 23 nM.
The corresponding values for `N#Cc1ccc(C(=O)Nc2ccc(F)c(-n3cc4cc(-c5ccccn5)cnc4n3)c2)o1` [Compound 206, 5-cyano-N-{4-fluoro-3-[5-(pyridin-2-yl)-2H-pyrazolo[3,4-b]pyridin-2-yl]phenyl}furan-2-carboxamide] are 1 nM, 13 nM, 2 nM and 5 nM.
The corresponding values for `Cc1nc(C)c(C(=O)Nc2ccc(F)c(-n3cc4cc(CC5CCC5)cnc4n3)c2)o1` [Compound 106, N-{3-[5-(cyclobutylmethyl)-2H-pyrazolo[3,4-b]pyridin-2-yl]-4-fluorophenyl}-2,4-dimethyl-1,3-oxazole-5-carboxamide] are 61 nM, 85 nM, 130 nM and above 50000 nM.
Take `CC(C)OC(=O)Nc1cnc2nn(-c3cc(NC(=O)N4CCC4)ccc3F)cc2c1` [Compound 138, propan-2-yl N-(2-{5-[(azetidine-1-carbonyl)amino]-2-fluorophenyl}-2H-pyrazolo[3,4-b]pyridin-5-yl)carbamate]: the EC50 was 47 nM in assay [1], 5.7 nM in assay [2], 11 nM in assay [3] and below 23 nM in assay [4] (Trypanosoma brucei).
The matching figures for `Cc1nc(C(=O)Nc2ccc(F)c(-n3cc4cc(C(C)C)cnc4n3)c2)co1` [Compound 85, N-{4-fluoro-3-[5-(propan-2-yl)-2H-pyrazolo[3,4-b]pyridin-2-yl]phenyl}-2-methyl-1,3-oxazole-4-carboxamide]: 150 nM, 750 nM, 1200 nM and 180 nM.
The corresponding values for `O=C(Nc1ccc(F)c(-n2cc3cc(-c4ccc(F)cn4)cnc3n2)c1)N1CCC1` [Compound 330, N-{4-fluoro-3-[5-(5-fluoropyridin-2-yl)-2H-pyrazolo[3,4-b]pyridin-2-yl]phenyl}azetidine-1-carboxamide] are 1 nM, 2 nM, 1 nM and 1 nM.
On to `O=C(Nc1ccc(F)c(-n2cc3cc(N4CCC5(CC5)C4)cnc3n2)c1)N1CCC2(CC2)C1` [Compound 242, N-[3-(5-{5-azaspiro[2.4]heptan-5-yl}-2H-pyrazolo[3,4-b]pyridin-2-yl)-4-fluorophenyl}-5-azaspiro[2.4]heptane-5-carboxamide], for which the EC50 is 7 nM in assay [1], 106 nM in assay [2], 1970 nM in assay [3] and 13 nM in assay [4] (Trypanosoma brucei).
Take `O=C(Nc1ccc(F)c(-n2cc3cc(N4CCOCC4)cnc3n2)c1)N1CC[C@@H](F)C1` [Compound 135, (3R)-3-fluoro-N-{4-fluoro-3-[5-(morpholin-4-yl)-2H-pyrazolo[3,4-b]pyridin-2-yl]phenyl}pyrrolidine-1-carboxamide]: the EC50 in assay [1] was 6.6 nM; in assay [2] it was 8.6 nM; in assay [3], 4.6 nM; in assay [4] (Trypanosoma brucei), below 23 nM.
With `O=C(Nc1ccc(F)c(-n2cc3cc(-c4ccccn4)cnc3n2)c1)c1cnccn1` [Compound 345, N-{4-fluoro-3-[5-(pyridin-2-yl)-2H-pyrazolo[3,4-b]pyridin-2-yl]phenyl}pyrazine-2-carboxamide], the EC50 in assay [1] was found to be 4 nM; in assay [2], 33 nM; in assay [3] it was 11 nM; in assay [4] (Trypanosoma brucei), 5 nM.
In the case of `O=C(Nc1ccc(F)c(-n2cc3cc(-c4ccccn4)cnc3n2)c1)N1CC(F)C1` [Compound 28, 3-fluoro-N-{4-fluoro-3-[5-(pyridin-2-yl)-2H-pyrazolo[3,4-b]pyridin-2-yl]phenyl}azetidine-1-carboxamide], the EC50 in assay [1] was 1 nM; in assay [2] it was 2 nM; in assay [3] it was 1.3 nM; in assay [4] (Trypanosoma brucei), below 23 nM.
As for `COCC1CN(c2cnc3nn(-c4cc(NC(=O)N5CC(F)C5)ccc4F)cc3c2)C1` [Compound 232, 3-fluoro-N-(4-fluoro-3-{5-[3-(methoxymethyl)azetidin-1-yl]-2H-pyrazolo[3,4-b]pyridin-2-yl]phenyl)azetidine-1-carboxamide], the EC50 was determined as 12 nM in assay [1], 10 nM in assay [2], 12 nM in assay [3] and 5 nM in assay [4].
Regarding `Cc1nc(C)c(C(=O)Nc2ccc(F)c(-n3cc4cc(N5CCC5)cnc4n3)c2)o1` [Compound 155, N-{3-[5-(azetidin-1-yl)-2H-pyrazolo[3,4-b]pyridin-2-yl]-4-fluorophenyl}-2,4-dimethyl-1,3-oxazole-5-carboxamide], the EC50 in assay [1] is 18 nM; in assay [2], 22 nM; in assay [3] it was 53 nM; in assay [4] (Trypanosoma brucei), below 23 nM.
The corresponding values for `CC(C)c1cnc2nn(-c3cc(NC(=O)c4ccc(F)cn4)ccc3F)cc2c1` [Compound 67, 5-fluoro-N-{4-fluoro-3-[5-(propan-2-yl)-2H-pyrazolo[3,4-b]pyridin-2-yl]phenyl}pyridine-2-carboxamide] are 42 nM, 310 nM, 210 nM and above 50000 nM.
With `O=C(Nc1ccc(F)c(-n2cc3cc(N4CC(F)C4)cnc3n2)c1)N1CCC1` [Compound 292, N-{4-fluoro-3-[5-(3-fluoroazetidin-1-yl)-2H-pyrazolo[3,4-b]pyridin-2-yl]phenyl}azetidine-1-carboxamide], the EC50 in assay [1] came out at 3 nM; in assay [2], 8 nM; in assay [3], 5 nM; in assay [4], 5 nM.
Turning to `O=C(Nc1ccnc(-n2cc3cc(-c4ccccn4)cnc3n2)c1)N1CC(F)C1` [Compound 342, 3-fluoro-N-{2-[5-(pyridin-2-yl)-2H-pyrazolo[3,4-b]pyridin-2-yl]pyridin-4-yl}azetidine-1-carboxamide], the EC50 in assay [1] was 17 nM; in assay [2], 24 nM; in assay [3] it was 7 nM; in assay [4] (Trypanosoma brucei), 10 nM.
